Results published in EP1429719B1, “ANTI-INFLAMMATORY DERMOCOSMETOLOGIC COMPOSITION IN PARTICULAR FOR TREATING ACNE AND SEBORRHEIC DERMATITIS” (Pierre Fabre Dermo-Cosmetique, priority 2001, dated 2003).

Test system: prostaglandine 6KF1α
Test: Production of prostaglandin 6KF1α by HaCaT human keratinocytes stimulated with calcium ionophore A23187 (ELISA)
Assay type: cell-based, humain
Details: 5 h culture; for PG6KF1α: n = 3
Description: Conformément à la présente invention, il a été mis en évidence une synergie d'activité anti-inflammatoire du lactamide et du glycyrrhétinate de zinc et/ou du glycyrrhétinate de stéaryl et/ou de glycyrrhétinate d'ammonium. Cette synergie a été objectivée à la suite d'une évaluation sur la production de prostaglandine 6KF1α par le kératynocyte humain.
Dans cette étude, on s'est intéressé en particulier à une prostaglandine, la PG6KF1α, métabolite stable de la prostarycline, qui est un des métabolites majeurs produits par le kératinocyte stimulé, et représentatif de la modulation de la production des métabolites de l'acide arachidonique issus de la voie de la cyclo-oxygénase.
Sur ce modèle, on a évalué l'activité du glycyrrhétinate de zinc en association avec le lactamide sur la production de PG6KF1α induite chez le kératinocyte par un stimulant de la cascade de l'acide arachidonique, le ionophore calcique A23187.
On a réalisé ensuite la même étude en évaluant l'activité du stéaryl glycyrrhétinate en association avec le lactamide.
La suspension de kératinocytes humains HaCaT dans le RPMI 10% SVF est distribuée dans les plaques 6 puits (1x106 cellules/2ml/puits) et incubée pendant 16 heures à 37°C dans une atmosphère à 5% CO2. Les kératinocytes sont alors rincés avec du PBS pour éliminer les cellules non-adhérentes puis exposés aux produits à tester inclus dans du RPMI sans SVF (qui pourrait interférer dans le dosage).
Le lactamide MEA est directement solubilisé dans le RPMI sans SVF à une concentration de 1 0mg/ml.
Le glycyrrhétinate de zinc est préparé dans l'éthanol absolu à 100 mg/ml puis repris dans le RPMI sans SVF à 10 mg/ml.
Le stéaryl glycyrrhétinate est préparé dans le DMSO à […] puis repris dans le RPMI sans SVF à 10mg/ml.
Le glycyrrhétinate d'ammonium est préparé dans l'éthanol absolu à 100 mg/ml puis repris dans le RPMI sans SVF à 25 mg/ml.
Pour chaque lot, 3 puits sont réalisés. Les cellules sont incubées pendant 1 heure avec les produits à tester puis le ionophore calcique A23187, est ajouté pendant 5 heures à la concentration 5µM.
Les milieux de culture de chacun des puits sont ensuite récupérés, centrifugés à 3000 tr/mn et conservés à -80°C.
La production de prostaglandine 6KF1α pour chacun des essais est mesurée par Kit Elisa EUROMEDEX.
Les lots suivants ont été réalisés : • Lot témoin • Lot témoin stimulé A23187 5µM • Lactamide MEA 500µg/ml + A23187 5µM • Glycyrrhétinate de zinc 10 µg/ml + A23187 5µM • Lactamide MEA 500µg/ml/Glycyrrhétinate de zinc 10µg/ml + A23187 5µM • Stéaryl glycyrrhétinate 50µg/ml + A23187 5µM • Lactamide MEA 500µg/ml/Stéaryl glycyrrhétinate 50µg/ml + A23187 5µM • Glycyrrhétinate d'ammonium 25 µg/ml + A23187 5µM • Lactamide MEA 500 µg/ml/Glycyrrhétinate d'ammonium 25 µg/ml + A23187 5µM.
Les résultats sont exprimés en picogrammes de prostaglandine 6KF1α pour 1x10^6 kératinocytes et par ml de culture.
L'analyse statistique des résultats est réalisée par une analyse de variance et par le test de Dunnett.

Compound: CC1(C)[C@@H](O)CC[C@]2(C)[C@H]3C(=O)C=C4[C@@H]5C[C@@](C)(C(=O)O)CC[C@]5(C)CC[C@@]4(C)[C@]3(C)CC[C@@H]12 [Glycyrrhétinate d'ammonium, glycyrrhétinate d'ammonium]
- PG6KF1α (Glycyrrhétinate d'ammonium 25µg/ml + A23187 5µM): 80,74 ± 3,67 pg/1x10^6 kératinocytes/ml
- inhibition at 25 µg/mL (Homo sapiens, Glycyrrhétinate d'ammonium 25µg/ml + A23187 5µM, n = 3, read-out: % activité / Témoin A23187): 30%

Compound: CC(O)C(=O)NCCO (stereo not shown) [Lactamide MEA, monoéthanolamide de l'acide lactique]
- inhibition at 500 µg/mL (Homo sapiens, Lactamide MEA 500µg/ml + A23187 5µM, n = 3, read-out: % activité / Témoin A23187): -8%
- PG6KF1α (Lactamide MEA 500µg/ml + A23187 5µM, 1 h pre-incubation): 124,87 ± 11,50 pg/1x10^6 kératinocytes/ml

Compound: CCCCCCCCCCCCCCCCCCOC(=O)[C@@]1(C)CC[C@]2(C)CC[C@]3(C)C(=CC(=O)[C@@H]4[C@@]5(C)CC[C@H](O)C(C)(C)[C@@H]5CC[C@]43C)[C@@H]2C1 [Stéaryl glycyrrhétinate, stéaryl glycyrrhétinate]
- inhibition at 50 µg/mL (Homo sapiens, Stéaryl glycyrrhétinate 50µg/ml + A23187 5µM, n = 3, read-out: % activité / Témoin A23187): 31%
- PG6KF1α (Stéaryl glycyrrhétinate 50µg/ml + A23187 5µM): 79,87 ± 5,14 pg/1x10^6 kératinocytes/ml

Compound: glycyrrhétinate de zinc
- PG6KF1α (Glycyrrhétinate de zinc 10µg/ml + A23187 5µM): 78,37 ± 2,55 pg/1x10^6 kératinocytes/ml
